Holding throughout (assay): inhibition of tumour cell growth, NCI panel, 48 h
The subject of experiment [1] is 786-0 renal.
In experiment [2] the test system is KM12 colon.
For experiment [3], the system named is MDA-MB-231 breast.
The test system of experiment [4] is MOLT-4 leukemia.
Experiment [5] has as its system OVCAR-3 ovarian.
In experiment [6] the test system is PC-3 prostate.
Experiment [7] deals with SF-539 CNS.
Experiment [8] deals with SK-MEL-2 melanoma.
For experiment [9], the system named is SR leukemia.
Experiment [10] deals with CCRF-CEM leukemia.

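Growth conditions: 96-well plates. Treatment: test compound, 48 hours, 5 concentrations. Analysis: linear interpolation between bracketing concentrations; unreached endpoints set to highest concentration. At the GI50, growth is halved. TGI: concentration producing complete growth inhibition.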 Some results are limits rather than exact numbers.

Regarding `COC(=O)c1cc2ccccc2c2c3c(ccc12)OCO3`, the GI50 in experiment [1] is 56.1 µM; in [2], 515 µM; in experiment [3], 59.7 µM; in [4], 794 µM; in experiment [5], 68.7 µM; in [6], 67.4 µM. Besides, the results for the GI50 in [7], in [8] and in experiment [9] were 44.4 µM, 49.9 µM and 167 µM, respectively. The TGI was 477 µM in [1]; above 1000 µM in experiment [2]; above 1000 µM in experiment [3]; above 1000 µM in [4]; 700 µM in experiment [5]; above 1000 µM in [6]. For the same compound, the values for the TGI in experiment [7], in [8] and in [9] were 394 µM, 334 µM and above 1000 µM, respectively.

Turning to `O=S(=O)(c1cccc2c(I)cccc12)N1CCCNCC1`, the GI50 was 16.9 µM in experiment [1]; 14.1 µM in experiment [10]; 16.3 µM in experiment [2]; 19.5 µM in experiment [3]; 10.9 µM in experiment [4]; 18.7 µM in experiment [5]. Besides, the GI50 is 14.9 µM in [6], 15.7 µM in experiment [7] and 16.7 µM in experiment [8]. In addition, the TGI in [1] is 32.8 µM; in experiment [10], 32.2 µM; in [2], 33.9 µM; in experiment [3] it was 36.7 µM; in experiment [4], 27.6 µM; in experiment [5] it was 43.3 µM. Also, the results for the TGI in experiment [6], in experiment [7] and in experiment [8] were 32.8 µM, 32.8 µM and 33.6 µM, respectively.

For `COc1ccc(COC2CC(OC)OC(C)C2OC(=O)c2ccccc2)cc1` (stereo unspecified), the TGI in [1] was above 100 µM; in experiment [10], above 100 µM; in [2], above 100 µM; in experiment [4], 40.1 µM; in experiment [5], above 95 µM; in [7] it was above 100 µM. Moreover, the TGI was above 100 µM in [8] and 58.2 µM in experiment [9].

On to `COc1ccc(C(=O)/C=C/c2cccc(Nc3ccnc4cc(Cl)ccc34)c2)cc1`, for which the GI50 in experiment [1] was 1.48 µM; in experiment [10] it was 2.88 µM; in experiment [2] it was 2.45 µM; in [4], 2.9 µM; in experiment [6] it was 2.51 µM; in [7], 1.7 µM. Also, the GI50 in experiment [9] was 0.491 µM. The TGI is 4.27 µM in [1]; above 100 µM in experiment [10]; above 100 µM in experiment [2]; above 100 µM in experiment [4]; above 100 µM in experiment [6]; 4.3 µM in experiment [7]. This compound returned a TGI in experiment [9] of 3.77 µM.

Turning to `CC(C)CCNCC(O)Cn1c2ccccc2c2ccccc21` (stereo unspecified), the GI50 in experiment [1] is 13.2 µM; in experiment [10], 12.8 µM; in experiment [2], 3.91 µM; in experiment [3], 3.51 µM; in experiment [4], 10.2 µM; in [5], 13.4 µM. For the same compound, the GI50 in experiment [6] is 10.6 µM; in experiment [7], 15.8 µM; in [9], 2.45 µM. In addition, the TGI in [1] came out at 27.3 µM; in experiment [10] it was 31.7 µM; in experiment [2], 14.4 µM; in experiment [3], 14.4 µM; in [4] it was 25.9 µM; in experiment [5], 26.8 µM. In addition, the figures for the TGI in experiment [6], in experiment [7] and in experiment [9] were 23 µM, 30.2 µM and 6.38 µM, respectively.

As for `C[CH2][Sn]([CH2]C)([O]C(=O)c1ccccc1F)[O][Sn]([CH2]C)([CH2]C)[O]C(=O)c1ccccc1F`, the GI50 is 25.2 µM in [1]; 4.67 µM in experiment [10]; above 67.6 µM in experiment [2]; 22 µM in experiment [4]; above 42 µM in [5]; 20.5 µM in experiment [7]. Also, the GI50 in experiment [8] is 19.1 µM; in [9], 34.6 µM. Also, the TGI in [1] is above 56.6 µM; in experiment [10], 21.6 µM; in experiment [2], above 100 µM; in experiment [4] it was above 75.3 µM; in experiment [5], above 56.3 µM; in [7] it was 46.9 µM. Further, the TGI was 38.6 µM in [8] and above 100 µM in experiment [9].

`CCN(CC)c1oc(N(CC)CC)c(C(=O)Nc2ccccn2)c(=O)c1C(C)=O`: the TGI in experiment [1], in [10], in experiment [2], in experiment [4], in [5] and in [7] was above 100 µM each time. Moreover, the TGI in experiment [8] and in experiment [9] was above 100 µM in each case.

On to `c1ccc2[nH]c(-c3cc(-c4ccc5c(c4)OCO5)n[nH]3)nc2c1`, for which the GI50 in experiment [1] was 4.58 µM; in experiment [10], 2.52 µM; in experiment [2] it was 1.75 µM; in experiment [3] it was 4.12 µM; in experiment [4], 2.68 µM; in [5], 3.21 µM. Also, the GI50 in experiment [6] was 3.64 µM; in experiment [7], 2.71 µM; in experiment [9] it was 3.37 µM. Moreover, the TGI was determined as 17.4 µM in experiment [1]; 22.4 µM in [10]; 13.2 µM in experiment [2]; 20.2 µM in experiment [3]; 20.9 µM in [4]; 14.6 µM in experiment [5]. In addition, the TGI in experiment [6] came out at 17.7 µM; in experiment [7], 14.1 µM; in experiment [9], 16.8 µM.

Consider `CN(C)C(=O)c1ccc([N+](=O)[O-])cc1`, for which the TGI in experiment [1], in experiment [10], in [2], in experiment [4], in experiment [5] and in [7] was above 100 µM throughout. Also, the TGI in experiment [8] and in experiment [9] was above 100 µM throughout.

On to `COc1ccc(CC2(Cc3ccc(OC)cc3)CCOC2=O)cc1`, for which the TGI in experiment [1], in experiment [10], in experiment [2], in [4], in experiment [5] and in experiment [8] was above 100 µM each time. Also, the TGI in experiment [9] was above 100 µM.

Turning to `COC(=O)C(CC1=C(O)Nc2ccccc2N1)/C(=N/NC(N)=O)C(=O)Nc1ccccc1C` (stereo unspecified), the TGI was above 100 µM in experiment [1]; 48.8 µM in [10]; above 100 µM in experiment [2]; above 100 µM in experiment [4]; above 100 µM in experiment [5]; above 100 µM in [7]. Besides, the values for the TGI in experiment [8] and in [9] were above 100 µM and 48.5 µM, respectively.
